# Experimental data published in paper PMC6541551 (Journal of psychopharmacology (Oxford, England), 2018).
# “Also recorded” adds a separate entry of the source. Marks after values point to notes of the source that are not given here.
# Tests used:
# [1] = rats; ref Moaddel et al., 2015; cited from earlier work
# [2] = Mouse pharmacokinetic studies of; format: in vivo, CD-1 mice
# [3] = Rat pharmacokinetic study of; format: in vivo, Sprague-Dawley rats; settings: for AUC/dose: plasma
# Screening of = format: in vivo, CD-1 mice; settings: male mice, three timepoints; for Relative BA (plasma AUClast p.o. / i.p.) / AUClast of (2R,6R)-HNK in plasma / AUC (systemic exposure to (2R,6R)-HNK): 50 mg/kg; for Cmax of (2R,6R)-HNK in plasma: 50 mg/kg of the compound
# mice [4] = assay: Open-field test; format: in vivo, CD-1 mice; settings: vs saline; for Open-field total distance travelled: 15, 50, 150, 450 mg/kg p.o., 60 min after administration
# mice [5] = assay: Adverse effects screening; format: in vivo, CD-1 mice
# mice [6] = assay: Forced-swim test; format: in vivo, CD-1 mice; settings: vs saline
# mice [7] = assay: Learned helplessness test; format: in vivo, CD-1 mice; settings: vs saline; for Learned helplessness: escape failures in the last 10 trials: p<0.001
# [8] = Canine pharmacokinetic study of; settings: for AUC0→∞ / t1/2 / Cmax: dog plasma
# [9] = brain, female mice, i.v., 50 mg/kg
# [10] = brain, female mice, p.o., 50 mg/kg
# [11] = brain, male mice, i.p., 50 mg/kg
# [12] = brain, male mice, i.v., 50 mg/kg
# [13] = male mice, p.o., 50 mg/kg, cohort p.o. vs i.p.
# [14] = male mice, p.o., 10 min, cohort p.o. vs i.v.
# [15] = plasma, female mice, i.v., 50 mg/kg
# [16] = plasma, female mice, p.o., 50 mg/kg
# [17] = 15 mg/kg i.p., 24-hour re-test, p<0.01
# [18] = 15 mg/kg i.p., one hour after administration, p<0.05
smiles,measurement,setting,value
"N[C@]1(c2ccccc2Cl)CCC[C@H](O)C1=O [(2S,6S)-HNK, (2S,6S)-hydroxynorketamine]",oral BA,[1],approximately 46%
"N[C@@]1(c2ccccc2Cl)CCC[C@@H](O)C1=O [(2R,6R)-HNK, (2R,6R)-hydroxynorketamine]",AUC0→∞,[2]; [9],9.53 µg·h/g
same,t1/2,[2]; [9],36 min
same,AUC0→∞,[2]; [10],6.96 µg·h/g
same,t1/2,[2]; [10],42 min
same,Cmax,"[2]; brain, female mice, p.o., single 50 mg/kg",11.6 µg/g
same,AUC0→∞,[2]; [11],4.94 µg·h/g
same,t1/2,[2]; [11],24 min
same,Cmax,"[2]; brain, male mice, i.p., single 50 mg/kg",12.7 µg/g
same,AUC0→∞,[2]; [12],8.38 µg·h/g
same,t1/2,[2]; [12],30 min
same,t1/2,"[2]; brain, male mice, p.o., 50 mg/kg",42 min
same,AUC0→∞,"[2]; brain, male mice, p.o., 50 mg/kg, range of two cohorts",2.85−5.19 μg/g×h
same,Cmax,"[2]; brain, male mice, p.o., single 50 mg/kg, range of two cohorts",6.49−8.60 μg/g
same,Absolute BA (plasma AUC0→∞ p.o. / i.v.),"[2]; female mice, 50 mg/kg",52%
same,maximal levels p.o. lower than i.v.,"[2]; female mice, 50 mg/kg, plasma",1.7 ×
same,Cl,"[2]; female mice, i.v.",51 mL/min/kg
same,Vss,"[2]; female mice, i.v.",0.80 L/kg
same,Brain to plasma ratio,"[2]; female mice, i.v., 50 mg/kg",0.67
same,AUC/dose,"[2]; female mice, i.v., plasma",0.330 µg·kg·h/mL/mg
same,Brain to plasma ratio,"[2]; female mice, p.o., 50 mg/kg",0.95
same,AUC/dose,"[2]; female mice, p.o., plasma",0.170 µg·kg·h/mL/mg
same,Absolute BA (plasma AUC0→∞ p.o. / i.v.),"[2]; male mice, 50 mg/kg",46%
same,maximal brain concentration p.o. as % of i.p.,"[2]; male mice, 50 mg/kg",51%
same,maximal plasma concentration p.o. as % of i.p.,"[2]; male mice, 50 mg/kg",44.1%
same,Relative BA (plasma AUC0→∞ p.o. / i.p.),"[2]; male mice, 50 mg/kg, five timepoints",62%
same,highest concentrations p.o. lower than i.p. and i.v.,"[2]; male mice, 50 mg/kg, plasma and brain",2–3 fold
same,brain concentration p.o. as % of i.v.,"[2]; male mice, 10 min after dosing, 50 mg/kg",42%
same,Brain to plasma ratio,"[2]; male mice, i.p., 50 mg/kg",0.96
same,Cl,"[2]; male mice, i.v.",74 mL/min/kg
same,Vss,"[2]; male mice, i.v.",1.7 L/kg
same,Brain to plasma ratio,"[2]; male mice, i.v., 50 mg/kg",0.86
same,AUC/dose,"[2]; male mice, i.v., plasma, normalized to free drug dose",0.226 µg·kg·h/mL/mg
same,maximal brain concentration,[2]; [13],6.49 µg/g
same,maximal plasma concentration,[2]; [13],5.90 µg/mL
same,Brain to plasma ratio,"[2]; male mice, p.o., 50 mg/kg, range of two cohorts",0.90−1.16
same,brain concentration at earliest timepoint,[2]; [14],8.60 µg/g
same,plasma concentration at earliest timepoint,[2]; [14],5640 ng/mL
same,Brain to plasma exposure ratio (brain penetrance),"[2]; male mice, p.o., cohort p.o. vs i.p.",0.90
same,Brain penetrance (brain to plasma ratio),"[2]; male mice, p.o., cohort p.o. vs i.v.",1.16
same,AUC/dose,"[2]; male mice, p.o., plasma, normalized to free drug dose",0.104 µg·kg·h/mL/mg
same,Brain to plasma ratio,"[2]; mice and rats, following oral administration (abstract)",0.67–1.2
same,Brain to plasma ratio,"[2]; mice, both sexes and all routes of administration",0.67–1.2
same,clearance,"[2]; mice, i.v., range of sexes",51 to 74 mL/min/kg
same,dose-normalized plasma exposure (AUC/dose),"[2]; mice, i.v., range of sexes",0.226 to 0.330 µg·kg·h/mL/mg
same,highest plasma concentrations in females higher than in males,"[2]; mice, p.o. and i.v., 50 mg/kg",1.5–2.6 ×
same,dose-normalized plasma exposure (AUC/dose),"[2]; mice, p.o., range of sexes",0.104 to 0.170 µg·kg·h/mL/mg
same,Tmax,"[2]; mice, plasma and brain, all routes (i.p., p.o., i.v.), 50 mg/kg",10 min
same,half-life (t1/2),"[2]; mice, plasma, range over routes and sexes",12 to 48 min
same,absolute oral BA,"[2]; mice, range of males and females",46–52%
same,AUC0→∞,[2]; [15],14.2 µg·h/mL
same,t1/2,[2]; [15],12 min
same,AUC0→∞,[2]; [16],7.33 µg·h/mL
same,t1/2,[2]; [16],18 min
same,Cmax,"[2]; plasma, female mice, p.o., single 50 mg/kg",14.7 µg/mL
same,t1/2,"[2]; plasma, male mice, i.p., 50 mg/kg",30 min
same,AUC0→∞,"[2]; plasma, male mice, i.p., single 50 mg/kg",5.12 µg·h/mL
same,Cmax,"[2]; plasma, male mice, i.p., single 50 mg/kg (43.1 mg/kg free base), five timepoints",13.4 µg/mL
same,t1/2,"[2]; plasma, male mice, i.v., 50 mg/kg",30 min
same,AUC0→∞,"[2]; plasma, male mice, i.v., single 50 mg/kg",9.76 µg·h/mL
same,t1/2,"[2]; plasma, male mice, p.o., 50 mg/kg",48 min
same,AUC0→∞,"[2]; plasma, male mice, p.o., single 50 mg/kg, range of two cohorts",3.18−4.49 μg/mL×h
same,Cl,"[3]; male rats, i.v.",27 mL/min/kg
same,Vss,"[3]; male rats, i.v.",7.5 L/kg
same,AUC/dose,"[3]; male rats, i.v.",0.627 µg·kg·h/mL/mg
same,AUC/dose,"[3]; male rats, p.o.",0.265 µg·kg·h/mL/mg
same,AUC0→∞,"[3]; rat brain, i.v., 10 mg/kg",6090 ng·h/mL
same,t1/2,"[3]; rat brain, i.v., 10 mg/kg",528 min
same,Cmax,"[3]; rat brain, i.v., 10 mg/kg, measured five minutes after dosing, not actual peak",9.13^a μg/mL
same,AUC0→∞,"[3]; rat brain, p.o., 10 mg/kg",2580 ng·h/mL
same,Cmax,"[3]; rat brain, p.o., 10 mg/kg",1.52 µg/mL
same,t1/2,"[3]; rat brain, p.o., 10 mg/kg",342 min
same,AUC0→∞,"[3]; rat plasma, i.v., 10 mg/kg",6270 ng·h/mL
same,t1/2,"[3]; rat plasma, i.v., 10 mg/kg",480 min
same,Cmax,"[3]; rat plasma, i.v., 10 mg/kg, measured five minutes after dosing, not actual peak",9.56^a μg/mL
same,AUC0→∞,"[3]; rat plasma, p.o., 10 mg/kg",2650 ng·h/mL
same,t1/2,"[3]; rat plasma, p.o., 10 mg/kg",414 min
same,Cmax,"[3]; rat plasma, p.o., single 10 mg/kg (free drug dose), eight timepoints",1.50 µg/mL
same,BA (absolute oral),"[3]; rats, 10 mg/kg p.o. vs i.v., plasma AUC0→∞",42%
same,Brain to plasma ratio,"[3]; rats, both i.v. and p.o., 10 mg/kg",0.97
same,time of peak concentration,"[3]; rats, plasma and brain, i.v., 10 mg/kg",0.083 h
same,Relative BA (plasma AUClast p.o. / i.p.),Screening of,47%
same,"Cmax of (2R,6R)-HNK in plasma",Screening of; i.p.,13400 ng/mL
same,"AUClast of (2R,6R)-HNK in plasma",Screening of; i.p.,5910 ng·h/mL
same,"Cmax of (2R,6R)-HNK in plasma",Screening of; p.o.,5900 ng/mL
same,"AUC (systemic exposure to (2R,6R)-HNK)",Screening of; p.o.,2.80 µg/mL/h
same,"AUClast of (2R,6R)-HNK in plasma",Screening of; p.o.,2800 ng·h/mL
same,Open-field total distance travelled,mice [4],did not alter the total distance travelled at any dose tested
same,Open-field total distance travelled,"mice [4]; listed as (2R,6R)-hydroxynorketamine",did not alter locomotor activity
same,Open-field time spent in the center (central 50%) of the arena,"mice [4]; 15-450 mg/kg p.o., 60 min",no significant effect; also recorded: did not alter
same,"Backwards movement, mean score±SEM","mice [5]; 450 mg/kg p.o., 60 min",0
same,"Ptosis, mean score±SEM","mice [5]; 450 mg/kg p.o., 60 min",0
same,"Sniffing, mean score±SEM","mice [5]; 450 mg/kg p.o., 60 min",0
same,"Tail flicking, mean score±SEM","mice [5]; 450 mg/kg p.o., 60 min",0
same,"Piloerection, mean score±SEM","mice [5]; 450 mg/kg p.o., observed over 60 min, n=4/group",0.25±0.25
same,Overall adverse effects,mice [5]; up to a dose of 450 mg/kg p.o.,"minimal, if any, adverse effects"
same,Forced-swim test immobility time,mice [6]; [17],reduced immobility time
same,Forced-swim test immobility time,mice [6]; [18],reduced immobility time
same,Forced-swim test immobility time,"mice [6]; 15-150 mg/kg p.o., 24 h after treatment, p<0.01",reductions in immobility time
same,Forced-swim test immobility time,"mice [6]; 15-150 mg/kg p.o., one hour after treatment, p<0.05",reductions in immobility time
same,Learned helplessness: escape failures in the last 10 trials,"mice [7]; 50 mg/kg i.p., 24 h after treatment",reduced
same,Learned helplessness: total number of escape failures,"mice [7]; 50 mg/kg i.p., tested 24 h after treatment, p<0.01",reduced the total number of escape failures
same,Learned helplessness: escape failures in the last 10 trials,"mice [7]; 50 and 150 mg/kg p.o., 24 h after treatment",robust reduction in the number of escape failures; also recorded: effective at reversing helplessness
same,Learned helplessness: total number of escape failures,"mice [7]; 50 and 150 mg/kg p.o., 24 h after treatment, p<0.05",robust reduction in the number of escape failures; also recorded: effective at reversing helplessness
same,AUC0→∞,"[8]; i.v., 10 mg/kg",7830 ng·h/mL
same,t1/2,"[8]; i.v., 10 mg/kg",96 min
same,Cmax,"[8]; i.v., 10 mg/kg, measured five minutes after dosing, not actual peak",8.87^a μg/mL
same,AUC0→∞,"[8]; p.o., 10 mg/kg",4540 ng·h/mL
same,t1/2,"[8]; p.o., 10 mg/kg",90 min
same,Cmax,"[8]; p.o., single 10 mg/kg (free drug dose)",3.44 µg/mL
same,BA (absolute oral),"[8]; dogs, 10 mg/kg p.o. vs i.v.",58%
same,time of peak plasma concentration,"[8]; dogs, i.v., 10 mg/kg, first collection time point",five minutes
same,Tmax,"[8]; dogs, plasma, p.o., 10 mg/kg",16.8 min
same,Cl,"[8]; male dogs, i.v.",21 mL/min/kg
same,Vss,"[8]; male dogs, i.v.",1.2 L/kg
same,AUC/dose,"[8]; male dogs, i.v., plasma",0.783 µg·kg·h/mL/mg
same,AUC/dose,"[8]; male dogs, p.o., plasma",0.454 µg·kg·h/mL/mg
N[C@@]1(c2ccccc2Cl)CCC[C@@H](OC(=O)c2ccccc2)C1=O [Compound 2e],Relative BA (plasma AUClast p.o. / i.p.),Screening of,44%
"CNC1(c2ccccc2Cl)CCCCC1=O (racemic) [ketamine, (R,S)-ketamine, reference compound]",Forced-swim test immobility time,mice [6]; [17],reduced immobility time
same,Forced-swim test immobility time,mice [6]; [18],reduced immobility time
CCCCC(=O)O[C@@H]1CCC[C@@](N)(c2ccccc2Cl)C1=O [Compound 2c],Relative BA (plasma AUClast p.o. / i.p.),Screening of,26%
CCC(=O)O[C@@H]1CCC[C@@](N)(c2ccccc2Cl)C1=O [Compound 2b],Relative BA (plasma AUClast p.o. / i.p.),Screening of,30%
CCCCCCCC(=O)O[C@@H]1CCC[C@@](N)(c2ccccc2Cl)C1=O [Compound 2d],Relative BA (plasma AUClast p.o. / i.p.),Screening of,10%
same,"AUC (systemic exposure to (2R,6R)-HNK)",Screening of; p.o.,0.782 µg/mL/h
CC(=O)O[C@@H]1CCC[C@@](N)(c2ccccc2Cl)C1=O [Compound 2a],Relative BA (plasma AUClast p.o. / i.p.),Screening of,28%
same,"AUC (systemic exposure to (2R,6R)-HNK)",Screening of; p.o.,2.26 µg/mL/h
